{"source": "patent US20230116703A1", "about": "“NOVEL ERGOLINES AND METHODS OF TREATING MOOD DISORDERS” (priority 2021, published 2023)", "tested_on": "C57BL/6 mice", "assay": "Marble burying test (MBT) in mice", "type": "in vivo", "conditions": "mouse, SC, 30-minute period", "description": "Compound 1 produced an anxiolytic-like effect in the marble burying test (MBT) in C57BL/6 mice (FIG. 3).\nAnimals. Adult male C57BL/6 mice, aged 8-10 weeks (body weight 20-25 g) were used in these experiments. Animals were housed under controlled temperatures and 12-hour light/dark cycles (lights on between 07:00-19:00 h), with ad libitum food and water. This study was carried out in strict accordance with the requirements of the Committee for the Purpose of Control and Supervision of Experiments on Animals (CPCSEA), India. All efforts were made to minimize suffering.\nDrugs and Drug Administration. Compound 1 was synthesized as described above. Desipramine HCl was commercially obtained. The test compound, vehicle, and the positive control desipramine were administered subcutaneously (SC), with doses calculated based on the freebase. Normal saline was used as the vehicle. All compounds were administered at a volume of 10 mL/kg. All treatments were administered 30 minutes prior to the start of behavioral testing. Group size was n=9-10 per treatment.\nMarble Burying Test (MBT). […] Mice were handled for about 2 min daily for the 3 days prior to the beginning of the experimental procedure. […] The total number of marbles buried were counted in three 10-minute time bins (total 30 minutes). […]", "data": [{"smiles": "CCCN1C[C@H](C(=O)N(CC)CC)C=C2c3cccc4[nH]cc(c34)C[C@H]21", "note": "[Compound 1, (6aR,9R)—N,N-diethyl-7-propyl-4,6,6a,7,8,9-hexahydroindolo[4,3-fg]quinoline-9-carboxamide]", "values": [{"measurement": "number of marbles buried compared to vehicle (in words)", "value": "reduced the number of marbles buried"}]}]}
